Results taken from US20080009418A1, “Selective Inhibitors” (Alchemia LTD., priority 2004, published 2008).

How the values were obtained:
Settings in all cases: compound at 10 μM
[1] = molecular target: T1, Human Melanocortin (MC4) (Homo sapiens, UniProt P32245); assay: Radioligand binding, human melanocortin MC4 membranes, FlashPlate, [125I]-NDP-αMSH
T1 construct: purchased Perkin Elmer Biosignal
Procedure, shortened: (§1)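 Cloned human receptor membranes were coated onto FlashPlate wells and incubated with radioligand and compound (added from a 0.5 mM DMSO daughter plate) for 1 hour at room temperature in the dark. Scintillation counting gave percent inhibition, with DMSO defining total and reference ligand defining non-specific binding.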

[2] = molecular target: T2, Human melanin-concentrating hormone (MCH1) (Homo sapiens, UniProt Q99705); assay: Radioligand binding, human melanin-concentrating hormone MCH1 membranes, FlashPlate, [125I]-S36057
T2 construct: purchased Perkin Elmer Biosignal
Procedure, shortened: as §1

[3] = molecular target: T3, Human μ-opioid (MOP) (Homo sapiens, UniProt P35372); assay: Radioligand binding, human μ-opioid (MOP) membranes, FlashPlate, [3H]-Naloxone
T3 construct: purchased Perkin Elmer Biosignal
Procedure, shortened: as §1

[4] = molecular target: T4, Human Melanocortin (MC3) (Homo sapiens, UniProt P41968); assay: Radioligand binding, human melanocortin MC3 membranes, FlashPlate, [125I]-NDP-αMSH
T4 construct: purchased Perkin Elmer Biosignal
Procedure, shortened: as §1

[5] = molecular target: T5, Human melanocortin (MC5) (Homo sapiens, UniProt P33032); assay: Radioligand binding, human melanocortin MC5 membranes, FlashPlate, [125I]-NDP-αMSH
T5 construct: purchased Perkin Elmer Biosignal
Procedure, shortened: as §1

[6] = molecular target: T6, Human neurokinin (NK1) (Homo sapiens, UniProt P25103); assay: Radioligand binding, human neurokinin NK1 membranes, filtration, [125I]-Substance P
T6 construct: purchased Perkin Elmer Biosignal
Procedure, shortened: (§2)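 Percent inhibition of radioligand binding measured on recombinant human membranes: NK1 with [125I]-Substance P, KOP with [3H]-Diprenorphine. Incubation 1 h at room temperature, then harvest onto 0.3% PEI-soaked filters, cold Tris-HCl pH 7.4 washes and scintillation counting; non-specific binding from reference ligand wells.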

[7] = molecular target: T7, Human δ-opioid (DOP) (Homo sapiens, UniProt P41143); assay: Radioligand binding, human δ-opioid (DOP) membranes, FlashPlate, [3H]-Bremazocine
T7 construct: purchased Perkin Elmer Biosignal
Procedure, shortened: as §1

[8] = molecular target: T8, Mouse urotensin (mUR2) (Mus musculus, UniProt Q8VIH9); assay: Radioligand binding, mouse urotensin mUR2 membranes, FlashPlate, [125I]-Urotensin II
T8 construct: purchased Perkin Elmer Biosignal
T8 sequence (Q8VIH9 1-385): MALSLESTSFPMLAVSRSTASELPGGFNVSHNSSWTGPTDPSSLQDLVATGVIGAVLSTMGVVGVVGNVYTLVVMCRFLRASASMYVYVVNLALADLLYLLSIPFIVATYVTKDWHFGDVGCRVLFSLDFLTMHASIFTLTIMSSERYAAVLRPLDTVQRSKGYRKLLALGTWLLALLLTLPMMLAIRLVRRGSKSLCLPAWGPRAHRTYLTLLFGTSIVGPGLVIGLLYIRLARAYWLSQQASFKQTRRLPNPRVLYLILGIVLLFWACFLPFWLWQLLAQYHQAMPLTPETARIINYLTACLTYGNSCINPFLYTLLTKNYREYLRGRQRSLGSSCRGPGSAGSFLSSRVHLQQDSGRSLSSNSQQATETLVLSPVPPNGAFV
Procedure, shortened: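 Cloned mouse urotensin (mUR2) receptor membranes from Perkin Elmer Biosignal were immobilized in FlashPlate microplates using a proprietary coating. Each well got 19.5 μl buffer, then 0.5 μl of DMSO, reference ligand, or compound. Adding 5 μl of [125I]-Urotensin II, diluted to 5× final concentration in binding buffer, started binding. Plates were sealed with TopSeal-A and incubated 1 hour at room temperature in the dark. Wells were counted for 30 seconds each on a TopCount after a 60-second delay, and percentage inhibition was calculated.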

[9] = molecular target: T9, Human neuropeptide Y (NPY-Y1) (Homo sapiens, UniProt P25929); assay: Radioligand binding, human neuropeptide Y NPY-Y1 membranes, FlashPlate, [125I]-PYY
T9 construct: purchased Perkin Elmer Biosignal
T9 sequence (P25929 1-384): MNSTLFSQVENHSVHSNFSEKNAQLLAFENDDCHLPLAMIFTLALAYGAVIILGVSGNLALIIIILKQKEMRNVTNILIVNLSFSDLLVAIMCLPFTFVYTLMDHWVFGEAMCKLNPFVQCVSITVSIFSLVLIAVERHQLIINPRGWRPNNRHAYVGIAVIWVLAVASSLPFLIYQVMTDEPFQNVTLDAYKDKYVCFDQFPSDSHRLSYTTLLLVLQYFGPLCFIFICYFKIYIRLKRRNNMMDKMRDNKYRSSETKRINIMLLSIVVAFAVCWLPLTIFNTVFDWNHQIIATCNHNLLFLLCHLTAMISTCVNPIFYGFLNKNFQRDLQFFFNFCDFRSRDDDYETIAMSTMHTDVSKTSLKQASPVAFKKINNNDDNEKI
Procedure, shortened: as §1

[10] = molecular target: T10, Human κ-Opioid (KOP) (Homo sapiens, UniProt P41145); assay: Radioligand binding, human κ-opioid (KOP) membranes, filtration, [3H]-Diprenorphine
T10 construct: purchased Perkin Elmer Biosignal
Procedure, shortened: as §2

[11] = molecular target: T11, Human opioid (ORL1) (Homo sapiens, UniProt P41146); assay: Radioligand binding, human opioid ORL1 membranes, FlashPlate, [125I]-Nociceptin
T11 construct: purchased Perkin Elmer Biosignal
Procedure, shortened: as §1

T11 sequence (P41146 whole entry): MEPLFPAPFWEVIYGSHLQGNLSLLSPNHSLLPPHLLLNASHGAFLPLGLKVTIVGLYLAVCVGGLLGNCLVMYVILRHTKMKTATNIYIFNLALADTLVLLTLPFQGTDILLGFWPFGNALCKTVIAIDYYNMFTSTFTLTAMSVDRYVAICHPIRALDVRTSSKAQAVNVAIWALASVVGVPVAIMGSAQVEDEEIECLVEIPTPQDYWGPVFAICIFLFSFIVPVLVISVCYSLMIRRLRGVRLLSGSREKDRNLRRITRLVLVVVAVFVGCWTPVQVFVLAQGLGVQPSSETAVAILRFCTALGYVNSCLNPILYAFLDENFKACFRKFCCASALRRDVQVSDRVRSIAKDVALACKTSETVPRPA
T1 sequence (P32245 whole entry): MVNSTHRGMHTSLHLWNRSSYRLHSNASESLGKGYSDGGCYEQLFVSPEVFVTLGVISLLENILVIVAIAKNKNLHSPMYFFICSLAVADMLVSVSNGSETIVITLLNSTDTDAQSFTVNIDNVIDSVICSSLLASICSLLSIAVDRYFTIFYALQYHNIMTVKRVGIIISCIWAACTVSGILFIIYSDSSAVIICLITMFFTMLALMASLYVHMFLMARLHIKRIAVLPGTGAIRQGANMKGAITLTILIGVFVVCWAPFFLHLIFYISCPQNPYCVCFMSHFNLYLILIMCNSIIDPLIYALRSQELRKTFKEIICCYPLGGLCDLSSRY
T4 sequence (P41968 whole entry): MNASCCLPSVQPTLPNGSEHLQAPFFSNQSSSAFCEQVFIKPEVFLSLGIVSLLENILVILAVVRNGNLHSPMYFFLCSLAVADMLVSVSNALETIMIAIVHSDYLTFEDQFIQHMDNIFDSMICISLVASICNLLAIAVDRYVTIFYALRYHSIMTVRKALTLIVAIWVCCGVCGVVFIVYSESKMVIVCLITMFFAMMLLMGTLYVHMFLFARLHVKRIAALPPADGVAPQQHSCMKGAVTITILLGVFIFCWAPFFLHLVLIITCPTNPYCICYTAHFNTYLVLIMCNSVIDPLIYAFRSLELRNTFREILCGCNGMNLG
T2 sequence (Q99705 whole entry): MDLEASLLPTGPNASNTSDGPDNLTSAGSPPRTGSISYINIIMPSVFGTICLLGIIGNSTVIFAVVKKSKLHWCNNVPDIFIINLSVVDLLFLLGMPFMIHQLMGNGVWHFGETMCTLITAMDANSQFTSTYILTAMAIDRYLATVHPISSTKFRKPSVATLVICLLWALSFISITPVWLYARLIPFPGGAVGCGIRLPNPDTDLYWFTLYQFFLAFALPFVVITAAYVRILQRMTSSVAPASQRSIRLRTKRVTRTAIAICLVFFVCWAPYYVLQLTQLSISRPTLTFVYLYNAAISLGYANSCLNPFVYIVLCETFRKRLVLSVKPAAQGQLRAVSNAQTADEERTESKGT
T3 sequence (P35372 whole entry): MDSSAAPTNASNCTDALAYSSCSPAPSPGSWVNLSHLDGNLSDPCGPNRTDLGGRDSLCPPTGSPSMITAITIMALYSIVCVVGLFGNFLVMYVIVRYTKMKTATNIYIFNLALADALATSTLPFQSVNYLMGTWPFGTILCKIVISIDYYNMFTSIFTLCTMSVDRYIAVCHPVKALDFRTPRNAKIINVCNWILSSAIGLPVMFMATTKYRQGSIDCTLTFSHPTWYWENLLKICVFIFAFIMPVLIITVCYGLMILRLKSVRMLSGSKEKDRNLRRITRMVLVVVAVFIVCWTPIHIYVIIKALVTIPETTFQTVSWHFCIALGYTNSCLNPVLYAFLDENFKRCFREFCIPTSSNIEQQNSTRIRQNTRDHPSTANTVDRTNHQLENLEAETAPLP
T6 sequence (P25103 whole entry): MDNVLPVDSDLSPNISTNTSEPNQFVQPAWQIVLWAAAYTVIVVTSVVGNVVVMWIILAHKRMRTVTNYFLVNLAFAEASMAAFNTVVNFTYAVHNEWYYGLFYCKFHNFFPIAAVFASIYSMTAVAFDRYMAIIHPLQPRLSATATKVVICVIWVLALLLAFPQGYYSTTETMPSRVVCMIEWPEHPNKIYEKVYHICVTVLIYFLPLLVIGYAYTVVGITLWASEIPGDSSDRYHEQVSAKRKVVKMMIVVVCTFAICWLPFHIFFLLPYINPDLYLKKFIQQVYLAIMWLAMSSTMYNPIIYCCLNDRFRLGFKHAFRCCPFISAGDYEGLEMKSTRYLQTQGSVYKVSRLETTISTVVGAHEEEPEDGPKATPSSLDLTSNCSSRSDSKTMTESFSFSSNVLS
T10 sequence (P41145 whole entry): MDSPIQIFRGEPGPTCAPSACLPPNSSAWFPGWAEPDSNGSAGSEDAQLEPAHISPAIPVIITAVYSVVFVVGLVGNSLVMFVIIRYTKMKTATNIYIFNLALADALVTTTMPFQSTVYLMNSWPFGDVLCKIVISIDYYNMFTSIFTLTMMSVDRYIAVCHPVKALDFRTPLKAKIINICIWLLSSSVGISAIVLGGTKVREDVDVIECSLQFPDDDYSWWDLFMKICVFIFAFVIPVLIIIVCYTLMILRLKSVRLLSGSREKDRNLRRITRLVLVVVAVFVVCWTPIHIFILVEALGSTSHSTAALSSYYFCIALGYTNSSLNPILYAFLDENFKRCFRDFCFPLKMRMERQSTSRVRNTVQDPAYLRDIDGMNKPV
T5 sequence (P33032 whole entry): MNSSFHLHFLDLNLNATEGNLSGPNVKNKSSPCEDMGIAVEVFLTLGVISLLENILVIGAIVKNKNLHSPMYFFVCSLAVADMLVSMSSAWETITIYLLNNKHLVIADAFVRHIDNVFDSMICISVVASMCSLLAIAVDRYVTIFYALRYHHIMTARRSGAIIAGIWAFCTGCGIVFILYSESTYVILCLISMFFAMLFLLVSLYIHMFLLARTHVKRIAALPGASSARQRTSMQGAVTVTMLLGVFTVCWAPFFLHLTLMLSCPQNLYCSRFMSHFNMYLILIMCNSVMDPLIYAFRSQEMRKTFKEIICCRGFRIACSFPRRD
T7 sequence (P41143 whole entry): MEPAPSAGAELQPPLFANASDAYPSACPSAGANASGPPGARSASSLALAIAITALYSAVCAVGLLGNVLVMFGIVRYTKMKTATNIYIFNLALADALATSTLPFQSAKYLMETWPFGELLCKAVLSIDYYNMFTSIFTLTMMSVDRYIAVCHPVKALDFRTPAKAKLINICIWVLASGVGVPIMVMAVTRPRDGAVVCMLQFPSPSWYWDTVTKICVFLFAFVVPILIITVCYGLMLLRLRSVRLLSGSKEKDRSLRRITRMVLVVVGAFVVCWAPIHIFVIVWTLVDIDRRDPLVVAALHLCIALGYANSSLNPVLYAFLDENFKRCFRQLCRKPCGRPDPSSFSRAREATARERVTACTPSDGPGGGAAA

SMILES: COC1C(O)C(COCc2ccc3ccccc3c2)OC(OCc2ccc(Cl)cc2)C1NC(=O)C1CCCN1 (stereo not shown) [compound 347]
- A4: inhibition of radioligand binding, human melanocortin (MC4) ([1]; [125I]-NDP-αMSH): − (“−” indicates less than 50% inhibition at 10 μM)
- A6: inhibition of radioligand binding, human melanin-concentrating hormone (MCH1) ([2]; [125I]-S36057): − (“−” indicates less than 50% inhibition at 10 μM)
- A7: inhibition of radioligand binding, human μ-opioid (MOP) ([3]; [3H]-Naloxone): − (“−” indicates less than 50% inhibition at 10 μM)
- A3: inhibition of radioligand binding, human melanocortin (MC3) ([4]; [125I]-NDP-αMSH): − (“−” indicates less than 50% inhibition at 10 μM)
- A5: inhibition of radioligand binding, human melanocortin (MC5) ([5]; [125I]-NDP-αMSH): − (“−” indicates less than 50% inhibition at 10 μM)
- A8: inhibition of radioligand binding, human neurokinin (NK1) ([6]; [125I]-Substance P): + (“+” indicates greater than 50% inhibition at 10 μM)
- A1: inhibition of radioligand binding, human δ-opioid (DOP) ([7]; [3H]-Bremazocine): − (“−” indicates less than 50% inhibition at 10 μM)
- A11: inhibition of radioligand binding, mouse urotensin (mUR2) ([8]; [125I]-Urotensin II): − (“−” indicates less than 50% inhibition at 10 μM)
- A9: inhibition of radioligand binding, human neuropeptide Y (NPY-Y1) ([9]; [125I]-PYY): − (“−” indicates less than 50% inhibition at 10 μM)
- A2: inhibition of radioligand binding, human κ-opioid (KOP) ([10]; [3H]-Diprenorphine): − (“−” indicates less than 50% inhibition at 10 μM)
- A10: inhibition of radioligand binding, human opioid (ORL1) ([11]; [125I]-Nociceptin): − (“−” indicates less than 50% inhibition at 10 μM)

SMILES: COCC1OC(OCc2ccc3ccccc3c2)C(NC(=O)CCN)C(OCc2ccc(Cl)cc2)C1O (stereo not shown) [compound 237]
- A4: inhibition of radioligand binding ([1]; [125I]-NDP-αMSH, FlashPlate): − (“−” indicates less than 50% inhibition at 10 μM)
- A6: inhibition of radioligand binding ([2]; [125I]-S36057, FlashPlate): − (“−” indicates less than 50% inhibition at 10 μM)
- A7: inhibition of radioligand binding ([3]; [3H]-Naloxone, FlashPlate): − (“−” indicates less than 50% inhibition at 10 μM)
- A3: inhibition of radioligand binding ([4]; [125I]-NDP-αMSH, FlashPlate): − (“−” indicates less than 50% inhibition at 10 μM)
- A5: inhibition of radioligand binding ([5]; [125I]-NDP-αMSH, FlashPlate): + (“+” indicates greater than 50% inhibition at 10 μM)
- A8: inhibition of radioligand binding ([6]; [125I]-Substance P, filtration): + (“+” indicates greater than 50% inhibition at 10 μM)
- A1: inhibition of radioligand binding ([7]; [3H]-Bremazocine, FlashPlate): − (“−” indicates less than 50% inhibition at 10 μM)
- A11: inhibition of radioligand binding ([8]; [125I]-Urotensin II, FlashPlate): − (“−” indicates less than 50% inhibition at 10 μM)
- A9: inhibition of radioligand binding ([9]; [125I]-PYY, FlashPlate): − (“−” indicates less than 50% inhibition at 10 μM)
- A2: inhibition of radioligand binding ([10]; [3H]-Diprenorphine, filtration): − (“−” indicates less than 50% inhibition at 10 μM)
- A10: inhibition of radioligand binding ([11]; [125I]-Nociceptin, FlashPlate): − (“−” indicates less than 50% inhibition at 10 μM)

SMILES: CO[C@H]1[C@H](O)[C@@H](COCc2ccc3ccccc3c2)OC(OCc2ccc(Cl)cc2)[C@@H]1NC(=O)CCCNC(=N)N (stereo partly shown) [compound 100]
- A4 radioligand binding, percentage inhibition ([1]; [125I]-NDP-αMSH): + (“+” indicates greater than 50% inhibition at 10 μM)
- A6 radioligand binding, percentage inhibition ([2]; [125I]-S36057): + (“+” indicates greater than 50% inhibition at 10 μM)
- A7 radioligand binding, percentage inhibition ([3]; [3H]-Naloxone): + (“+” indicates greater than 50% inhibition at 10 μM)
- A3 radioligand binding, percentage inhibition ([4]; [125I]-NDP-αMSH): + (“+” indicates greater than 50% inhibition at 10 μM)
- A5 radioligand binding, percentage inhibition ([5]; [125I]-NDP-αMSH): + (“+” indicates greater than 50% inhibition at 10 μM)
- A8 radioligand binding, percentage inhibition ([6]; [125I]-Substance P): + (“+” indicates greater than 50% inhibition at 10 μM)
- A1 radioligand binding, percentage inhibition ([7]; [3H]-Bremazocine): − (“−” indicates less than 50% inhibition at 10 μM)
- A11 radioligand binding, percentage inhibition ([8]; [125I]-Urotensin II): − (“−” indicates less than 50% inhibition at 10 μM)
- A9 radioligand binding, percentage inhibition ([9]; [125I]-PYY): − (“−” indicates less than 50% inhibition at 10 μM)
- A2 radioligand binding, percentage inhibition ([10]; [3H]-Diprenorphine): − (“−” indicates less than 50% inhibition at 10 μM)
- A10 radioligand binding, percentage inhibition ([11]; [125I]-Nociceptin): + (“+” indicates greater than 50% inhibition at 10 μM)

SMILES: CO[C@H]1[C@H](O)[C@@H](COCc2ccc3ccccc3c2)OC(OCc2ccc(-c3ccccc3)cc2)[C@@H]1NC(=O)CCCNC(=N)N (stereo partly shown) [compound 57]
- A4 radioligand binding inhibition ([1]; human melanocortin MC4 membranes): + (“+” indicates greater than 50% inhibition at 10 μM)
- A6 radioligand binding inhibition ([2]; human MCH1 membranes): − (“−” indicates less than 50% inhibition at 10 μM)
- A7 radioligand binding inhibition ([3]; human μ-opioid (MOP) membranes): + (“+” indicates greater than 50% inhibition at 10 μM)
- A3 radioligand binding inhibition ([4]; human melanocortin MC3 membranes): + (“+” indicates greater than 50% inhibition at 10 μM)
- A5 radioligand binding inhibition ([5]; human melanocortin MC5 membranes): + (“+” indicates greater than 50% inhibition at 10 μM)
- A8 radioligand binding inhibition ([6]; human neurokinin NK1 membranes): + (“+” indicates greater than 50% inhibition at 10 μM)
- A1 radioligand binding inhibition ([7]; human δ-opioid (DOP) membranes): − (“−” indicates less than 50% inhibition at 10 μM)
- A11 radioligand binding inhibition ([8]; mouse urotensin mUR2 membranes): − (“−” indicates less than 50% inhibition at 10 μM)
- A9 radioligand binding inhibition ([9]; human NPY-Y1 membranes): − (“−” indicates less than 50% inhibition at 10 μM)
- A2 radioligand binding inhibition ([10]; human κ-opioid (KOP) membranes): + (“+” indicates greater than 50% inhibition at 10 μM)
- A10 radioligand binding inhibition ([11]; human ORL1 membranes): + (“+” indicates greater than 50% inhibition at 10 μM)

SMILES: COC[C@H]1OC(OCc2ccc(Cl)cc2)[C@H](NC(=O)CCCN)[C@@H](OCc2ccc3ccccc3c2)[C@@H]1O (single isomer, unassigned) [compound 344]
- A4: inhibition of radioligand binding, human melanocortin (MC4) ([1]; [125I]-NDP-αMSH): − (“−” indicates less than 50% inhibition at 10 μM)
- A6: inhibition of radioligand binding, human melanin-concentrating hormone (MCH1) ([2]; [125I]-S36057): − (“−” indicates less than 50% inhibition at 10 μM)
- A7: inhibition of radioligand binding, human μ-opioid (MOP) ([3]; [3H]-Naloxone): − (“−” indicates less than 50% inhibition at 10 μM)
- A3: inhibition of radioligand binding, human melanocortin (MC3) ([4]; [125I]-NDP-αMSH): − (“−” indicates less than 50% inhibition at 10 μM)
- A5: inhibition of radioligand binding, human melanocortin (MC5) ([5]; [125I]-NDP-αMSH): − (“−” indicates less than 50% inhibition at 10 μM)
- A8: inhibition of radioligand binding, human neurokinin (NK1) ([6]; [125I]-Substance P): + (“+” indicates greater than 50% inhibition at 10 μM)
- A1: inhibition of radioligand binding, human δ-opioid (DOP) ([7]; [3H]-Bremazocine): − (“−” indicates less than 50% inhibition at 10 μM)
- A11: inhibition of radioligand binding, mouse urotensin (mUR2) ([8]; [125I]-Urotensin II): − (“−” indicates less than 50% inhibition at 10 μM)
- A9: inhibition of radioligand binding, human neuropeptide Y (NPY-Y1) ([9]; [125I]-PYY): − (“−” indicates less than 50% inhibition at 10 μM)
- A2: inhibition of radioligand binding, human κ-opioid (KOP) ([10]; [3H]-Diprenorphine): − (“−” indicates less than 50% inhibition at 10 μM)
- A10: inhibition of radioligand binding, human opioid (ORL1) ([11]; [125I]-Nociceptin): − (“−” indicates less than 50% inhibition at 10 μM)
